Converted amounts (≈) assume the structure as drawn. Where two headings read alike, the source gives them in different places.
Legend:
Format in all cases: cell-based
[1] = tested on: Staphylococcus aureus, Methicillin Resistant (ATCC 33591); experiment: Anti-microbial test, MIC by broth dilution method, methicillin resistant Staphylococcus aureus; conditions: for MIC: Staphylococcus aureus, ATCC 33591 / MRSA, read-out: MIC MRSA
Protocol: (§1) Staphylococcus aureus (Smith), and Staphylococcus aureus, Methicillin Resistant (ATCC 33591), In Vitro Bacteria
(§2) Minimum inhibitory concentration (MIC) of sample on Staphylococcus aureus (Smith) and Staphylococcus aureus, Methicillin Resistant (ATCC 33591) was determined by the broth dilution method [Edwards J. R. et al. In vitro antibacterial activity of SM-7338, a carbapenem antibiotic with stability to dehydropeptidase I. Antimicrobial Agents Chemotherapy. 33: pp. 215-222, 1989]. The test substance was dissolved (generally 100% DMSO) and serially diluted in solvent to desired stock concentrations. For each concentration tested, a 0.01 ml aliquot (1% DMSO final concentration) was added to a 48-well plate after which 0.99 ml of Mueller-Hinton Broth (DIFCO, USA.) with 1-5×10^5 CFU/ml of Staphylococcus aureus (Smith) or Staphylococcus aureus, Methicillin Resistant (ATCC 33591) was added. Thus, final maximal concentration of DMSO was 1% and the initial test substance concentration was 100 μg/ml or 30 μM. The plates were incubated at 37° C. for 20 hours and then visually examined and scored positive (+) for inhibition of growth or turbidity or negative (−) for no effect upon growth or turbidity. Vehicle-control and active reference agents were used as blank and positive controls, respectively. Each concentration was evaluated in duplicate.

[2] = tested on: Streptococcus pneumoniae (ATCC 6301); experiment: Anti-microbial test, MIC by broth dilution method, Streptococcus pneumoniae; conditions: for MIC: Streptococcus pneumoniae, read-out: MIC SP
Protocol: (§3) Streptococcus pneumoniae (ATCC 6301) and Streptococcus pneumoniae (Erythromycin and Ampicillin Res. Clin. Isol.), In Vitro Bacteria
(§4) Minimum inhibitory concentration (MIC) of sample on Streptococcus pneumoniae and Streptococcus pneumoniae (Erythromycin and Ampicillin Res. Clin. Isol.) was determined by the broth dilution method [Edwards J. R. et al. In vitro antibacterial activity of SM-7338, a carbapenem antibiotic with stability to dehydropeptidase I. Antimicrobial Agents Chemotherapy. 33: pp. 215-222, 1989.]. The test substance was dissolved (generally 100% DMSO) and serially diluted in solvent to desired stock concentrations. For each concentration tested, a 0.01 ml aliquot (1% DMSO final concentration) was added to a 48-well plate after which 0.99 ml of Tryptic Soy Broth (DIFCO, U.S.A.) containing 7% fetal bovine serum with 1-5×10^5 CFU/ml of Streptococcus pneumoniae (ATCC 6301) or Streptococcus pneumoniae (Erythromycin and Ampicillin Res. Clin. Isol.) was added. Thus, final maximal concentration of DMSO was 1% and the initial test substance concentration was 100 μg/ml or 30 μM. The plates were incubated at 37° C. for 20 hours and then visually examined and scored positive (+) for inhibition of growth or turbidity or negative (−) for no effect upon growth or turbidity. Vehicle-control and active reference agents were used as blank and positive controls, respectively. Each concentration was evaluated in duplicate.

[3] = tested on: Streptococcus pneumoniae (Erythromycin and Ampicillin Res. Clin. Isol.); experiment: Anti-microbial test, MIC by broth dilution method, resistant Streptococcus pneumoniae; conditions: for MIC: Streptococcus pneumoniae, read-out: MIC SP (EM & AM Res.)
Protocol: as §3, §4

[4] = tested on: Staphylococcus aureus (Smith); experiment: Anti-microbial test, MIC by broth dilution method, Staphylococcus aureus (Smith); conditions: for MIC: Staphylococcus aureus, read-out: MIC SA (Smith)
Protocol: as §1, §2

[5] = Mueller-Hinton Broth, 37° C., 20 hours, 1% DMSO, visual growth/turbidity
[6] = ATCC6301, Tryptic Soy Broth with 7% fetal bovine serum, 37° C., 20 hours, 1% DMSO
[7] = clinical isolates, Tryptic Soy Broth with 7% fetal bovine serum, 37° C., 20 hours, 1% DMSO

Compound | MIC [1, 5] [µg/mL] | MIC [2, 6] [µg/mL] | MIC [3, 7] [µg/mL] | MIC [4, 5] [µg/mL] | MIC ([1]; 20 h) [µg/mL] | MIC ([2]; ATCC6301, 20 h) [µg/mL] | MIC ([4]; 20 h) [µg/mL] | further results
CC1(C)S[C@@H]2[C@H](NC(=O)[C@H](N)c3ccccc3)C(=O)N2[C@H]1C(=O)O [Ampicillin, reference compound] | 30 (≈ 85.9 µM) | 0.01 (≈ 0.0286 µM) | 3 (≈ 8.59 µM) | 0.1 (≈ 0.286 µM) | – | – | – | –
CC1=CC(c2c(O)cc(-c3cc4ccc(O)cc4o3)cc2O)C(C(=O)c2ccc(O)cc2O)[C@H](c2ccc(O)cc2O)C1 (stereo partly drawn) [P2-1] | – | – | – | – | > 100 | 100 (≈ 172 µM) | 3 (≈ 5.17 µM) | MIC ([3]; 20 h): 30 µg/mL (≈ 51.7 µM)
CC(C)=CCc1c(-c2ccc(O)cc2O)oc2c(C3C=C(C)C[C@@H](c4ccc(O)cc4O)C3C(=O)c3ccc(O)cc3O)c(O)cc(O)c2c1=O (stereo partly drawn) [P2-2] | – | – | 30 (≈ 43.3 µM) | – | > 100 | 30 (≈ 43.3 µM) | 3 (≈ 4.33 µM) | –
CC(C)=CCCC1=CC(c2c(O)cc3c(c2O)C(=O)CC(c2ccc(O)cc2O)O3)C(C(=O)c2ccc(O)cc2O)C(c2ccc(O)cc2O)C1 (stereo not drawn) [P3-1] | 3 (≈ 4.32 µM) | 30 (≈ 43.2 µM) | 10 (≈ 14.4 µM) | 1 (≈ 1.44 µM) | – | – | – | –
CC(C)=CCc1c(O)ccc(C(=O)C2C(c3c(O)cc(O)c4c(=O)c(CC=C(C)C)c(-c5ccc(O)cc5O)oc34)C=C(C)CC2c2ccc(O)cc2O)c1O (stereo not drawn) [P3-2, 8-[6-[2,4-dihydroxy-3-(3-methyl-but-2-enyl)-benzoyl]-5-(2,4-dihydroxy-phenyl)-3-methyl-cyclohex-2-enyl]-2-(2,4-dihydroxy-phenyl)-5,7-dihydroxy-3-(3-methyl-but-2-enyl)-chromen-4-one] | 0.3 (≈ 0.394 µM) | 10 (≈ 13.1 µM) | 10 (≈ 13.1 µM) | 0.3 (≈ 0.394 µM) | – | – | – | –
CC(C)=CCc1c(-c2ccc(O)cc2O)oc2c3c(cc(O)c2c1=O)OC(C)(C)C=C3 [P3-3, 2-(2,4-dihydroxy-phenyl)-5-hydroxy-8,8-dimethyl-3-(3-methyl-but-2-enyl)-8H-pyrano[2,3-f]chromen-4-one] | 100 (≈ 238 µM) | 100 (≈ 238 µM) | 30 (≈ 71.4 µM) | 10 (≈ 23.8 µM) | – | – | – | –
CC(C)=CCC/C(C)=C/Cc1c(O)ccc2cc(-c3cc(O)cc(O)c3CC=C(C)C)oc12 [P3-4] | – | – | – | – | 100 (≈ 224 µM) | 30 (≈ 67.2 µM) | 3 (≈ 6.72 µM) | MIC ([3]; 20 h): 10 µg/mL (≈ 22.4 µM)
Gentamicin [reference compound] | – | – | – | – | – | – | – | MIC MRSA [1, 5]: 1 µg/mL; MIC on MRSA relative to MIC on SA (Smith) ([1]; ratio MRSA / SA (Smith)): 10 times; MIC SP ([2]; Tryptic Soy Broth with 7% fetal bovine serum, 37° C., 20 hours, 1% DMSO): 100 µg/mL; MIC SP (EM & AM Res.) [3, 7]: 100 µg/mL; MIC SA (Smith) [4, 5]: 0.1 µg/mL
